Key:
pathogenic bacteria = test: activity against pathogenic bacteria; details: area of human or veterinary medicine
[1] = storage stability of the crystal modification; assay type: physicochemical; details: prolonged storage
[2] = hygroscopicity of the solid; assay type: physicochemical; details: powder obtained by the known preparation process

Row | SMILES | activity against pathogenic bacteria (pathogenic bacteria) | stability of the crystal modification (change into another crystal modification or the amorphous form) [1] | hygroscopicity [2]
1 | N#Cc1c(N2C[C@@H]3CCCN[C@@H]3C2)c(F)cc2c(=O)c(C(=O)O)cn(C3CC3)c12 [CCDC of the crystal modification C, 8-cyano-1-cyclopropyl-7-(1S,6S-2,8-diazabicyclo[4.3.0]nonan-8-yl)-6-fluoro-1,4-dihydro-4-oxo-3-quinolinecarboxylic acid] | highly active | does not change into another crystal modification or the amorphous form | 
2 | N#Cc1c(N2C[C@@H]3CCCN[C@@H]3C2)c(F)cc2c(=O)c(C(=O)O)cn(C3CC3)c12 [partially amorphous powder, 8-cyano-1-cyclopropyl-7-(1S,6S-2,8-diazabicyclo[4.3.0]nonan-8-yl)-6-fluoro-1,4-dihydro-4-oxo-3-quinolinecarboxylic acid] |  |  | hygroscopic

Reference: patent US6649762B1, “Crystal modification C of 8-cyano-1-cyclopropyl-7-(1S,6S-2,8-diazabicyclo-[4.3.0]nonan-8-yl)-6-fluoro-1,4-dihyro-4-oxo-3-quinoline carboxylic” (Bayer Aktiengesellschaft, priority 1999, dated 2003)
